Legend:
[1] = test system: non small cell lung cancer; test: Kaplan-Meier survival analysis of bexarotene-treated patients in the SPIRIT I and II phase III trials; format: in vivo, human (patients); details: bexarotene plus chemotherapy, control arm 284 days
Method: Bexarotene (also called Targretin, LGD1069) is a selective modulator of retinoid X receptors (RXRs) approved for treating refractory advanced-stage cutaneous T-cell lymphoma (1, 2). […] Consequently, two large phase III trials (SPIRIT I and SPIRIT II) were conducted to evaluate the efficacy and safety of standard chemotherapy agents with or without bexarotene as a first-line therapy in treating advanced non small cell lung cancer. […] A known side-effect of retinoid therapy is the elevation of serum lipids, and the majority of the bexarotene treated patients in the two SPIRIT trials developed hypertriglyceridemia, as expected. […] This intriguing correlation between survival and triglyceride level induced by bexarotene observed in both SPIRIT trials is illustrated in FIG. 1A. […] These findings prompted the search for biomarkers which can predict bexarotene sensitivity and identify a subgroup of non small cell lung cancer patients whose survival could be prolonged by bexarotene treatment.
FIG. 1. Sub-population analysis and study design. […] Kaplan-Meier survival estimates in patients gave median survivals of 170 days, 263 days, and 371 days for these three groups, respectively. […] B. Overview of genome-wide association study design. In Stage I discovery phase, 150 samples (74 cases and 76 controls) were genotyped using the Affymetrix GeneChip 500K Mapping Array Set (Nsp array+Sty array) containing 500,000 SNPs following the Affymetrix standard protocol. 255 SNPs were then selected for stage II study. In Stage II, 400 samples were individually genotyped using the 255 Sequenom iPLEX SNP assays, including 147 samples (minus one case and two controls) used in the Stage I for the Verification group and 253 new samples for the Replication group. In the Replication group, 129 samples were included from the patients with middle level of triglyceride percentile (HTG Mid).

LCP1 = test: RNA microarray of LCP1 expression in paclitaxel-resistant MDA-MB-231 (MDA-PR) cells; format: cell-based, human; details: for effect on LCP1 expression (in words): paclitaxel alone, or bexarotene together with paclitaxel
Method: (§1) The human breast cancer cell line MDA-MB-231 was obtained from the American Type Culture Collection (Manassas, Va., USA), and MDA-MB-231 cells were routinely cultured in RPMI-1640 supplemented with 10% fetal bovine serum and 2 mM glutamine in 5% CO2. Bexarotene was synthesized at Ligand Pharmaceuticals Inc. (San Diego, Calif., USA), and paclitaxel was purchased from Sigma Chemicals (St. Louis, Mo., USA). The protocol for establishment of paclitaxel-resistant MDA-MB-231 cells and resensitization to paclitaxel by bexarotene treatment was described previously (5). Briefly, MDA-MB-231 cells were exposed to regimens on a 10-day cycle: a 3-day treatment with 30 nM paclitaxel followed by a 7-day exposure to control medium. […] These MDA-PR cells were then treated with the combination of 30 nM paclitaxel (3 days on and 7 days off) in the absence or presence of 1 μM Targretin (10 days on) in a new 10-day cycle for 3 months.

MDA-PR cells = test: Growth and resensitization of paclitaxel-resistant MDA-MB-231 cells; format: cell-based, human; details: 30 nM paclitaxel (3 days on, 7 days off) in absence or presence of 1 μM Targretin (10 days on), 3 months
Method: as §1

[2] = test system: non small cell lung cancer; details: addition of bexarotene to chemotherapy, first-line, advanced non small cell lung cancer, both phase III trials; cited from earlier work
[3] = bexarotene-treated patients, two SPIRIT trials; cited from earlier work

With C=C(c1ccc(C(=O)O)cc1)c1cc2c(cc1C)C(C)(C)CCC2(C)C [bexarotene] the “median survival (Kaplan-Meier estimate)” value ([1]; 'HTG Hi' group: 67% to maximum triglyceride) was 371 days, the “median survival (Kaplan-Meier estimate)” value ([1]; 'HTG Lo' group: triglyceride up to 33% of maximum level) was 170 days and the “median survival (Kaplan-Meier estimate)” value ([1]; 'HTG Mid' group: middle third (33% to 67%)) was 263 days. The “LCP1 expression up-regulation compared to MDA-PR cells” value (LCP1; 30 nM paclitaxel/1 μM bexarotene for 3 months, p-value=6.86×10^−6) was 3.8 fold, the “effect on LCP1 expression (in words)” value (LCP1) was “significantly up-regulated” and the “effect on growth / paclitaxel sensitivity of MDA-PR cells” value (MDA-PR cells) was “re-sensitized to paclitaxel”. The “overall survival in the intent-to-treat population” value [2] was “did not improve overall survival” and the “patients who developed NCI grade 3 or higher hypertriglyceridemia” value [3] was 30-40%.

With CC(=O)O[C@H]1C(=O)[C@@]2(C)[C@H]([C@H](OC(=O)c3ccccc3)[C@]3(O)C[C@H](OC(=O)[C@H](O)[C@@H](NC(=O)c4ccccc4)c4ccccc4)C(C)=C1C3(C)C)[C@]1(OC(C)=O)CO[C@@H]1C[C@@H]2O [paclitaxel] the “effect on LCP1 expression (in words)” value (LCP1) was “no effect” and the “effect on growth / paclitaxel sensitivity of MDA-PR cells” value (MDA-PR cells) was “no effect”.

Reference: patent US10202652B2, “Methods and compositions of predicting activity of retinoid X receptor modulator” (Denovo Biopharma (Hangzhou) Ltd. Co., priority 2011, dated 2019)
